Experimental data taken from PubChem BioAssay (NCI).
Several values for one entry are separate records, joined by “and”; a condition that tells them apart may be missing. Equal values may be shown once.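 All cell lines were grown in 96-well plates and treated with compound for 48 hours. GI50: concentration for 50% inhibition of growth. TGI marks complete inhibition of growth.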

Columns and labels:
Assay in all cases: growth of human tumour cells (NCI), 48 h
[1] = tested on: 786-0 renal
[2] = tested on: A549 NSCLC
[3] = tested on: ACHN renal
[4] = tested on: BT-549 breast
[5] = tested on: CAKI-1 renal
[6] = tested on: CCRF-CEM leukemia
[7] = tested on: COLO 205 colon
[8] = tested on: DU-145 prostate
[9] = tested on: HCC-2998 colon
[10] = tested on: HCT-116 colon
[11] = tested on: HCT-15 colon
[12] = tested on: HL-60(TB) leukemia
[13] = tested on: HOP-62 NSCLC
[14] = tested on: HOP-92 NSCLC
[15] = tested on: HS 578T breast
[16] = tested on: HT29 colon
[17] = tested on: IGROV1 ovarian
[18] = tested on: K-562 leukemia
[19] = tested on: KM12 colon
[20] = tested on: LOX IMVI melanoma
[21] = tested on: M14 melanoma
[22] = tested on: MALME-3M melanoma
[23] = tested on: MCF7 breast
[24] = tested on: MDA-MB-231 breast
[25] = tested on: MDA-MB-435
[26] = tested on: MDA-N
[27] = tested on: MOLT-4 leukemia
[28] = tested on: NCI-H23 lung
[29] = tested on: NCI-H460 lung
[30] = tested on: NCI/ADR-RES ovarian
[31] = tested on: OVCAR-3 ovarian
[32] = tested on: OVCAR-4 ovarian
[33] = tested on: OVCAR-5 ovarian
[34] = tested on: PC-3 prostate
[35] = tested on: RPMI-8226 leukemia
[36] = tested on: RXF 393 renal
[37] = tested on: SF-268 CNS
[38] = tested on: SF-295 CNS
[39] = tested on: SF-539 CNS
[40] = tested on: SK-MEL-2 melanoma
[41] = tested on: SK-MEL-28 melanoma
[42] = tested on: SK-MEL-5 melanoma
[43] = tested on: SK-OV-3 ovarian
[44] = tested on: SN12C renal
[45] = tested on: SNB-19 CNS
[46] = tested on: SNB-75 CNS
[47] = tested on: SR leukemia
[48] = tested on: SW-620 colon
[49] = tested on: T-47D breast
[50] = tested on: TK-10 renal
[51] = tested on: U251 CNS
[52] = tested on: UACC-257 melanoma
[53] = tested on: UACC-62 melanoma
[54] = tested on: UO-31 renal
[55] = tested on: EKVX NSCLC
[56] = tested on: NCI-H226 lung
[57] = tested on: NCI-H522 lung
[58] = tested on: OVCAR-8 ovarian

## COC1OC(COC(=O)NCCCCC(=O)C(F)(F)C(F)(F)C(F)(F)C(F)(F)C(F)(F)C(F)(F)C(F)(F)F)C(O)C(O)C1O (configuration not stated)
[1]
  TGI: 31.4 µM and 30.1 µM
[2]
  TGI: 36.1 µM and 31 µM
[3]
  TGI: 31.8 µM and 29.9 µM
[4]
  TGI: 31.4 µM and 31.9 µM
[5]
  TGI: 32.9 µM and 30 µM
[6]
  GI50: 16.4 µM and 7.62 µM
  TGI: 44 µM and 37.4 µM
[7]
  TGI: 45 µM and 39.7 µM
[8]
  GI50: 34.8 µM and 4.86 µM
  TGI: > 100 µM and 29.9 µM
[9]
  TGI: 36.5 µM and 37.5 µM
[10]
  TGI: 39.4 µM and 31.9 µM
[11]
  TGI: 33.1 µM and 38.3 µM
[12]
  GI50: 24.9 µM
  TGI: > 100 µM
[13]
  TGI: 32.1 µM and 30.1 µM
[14]
  GI50: 14.2 µM and 2.27 µM
  TGI: 28.6 µM and 15.6 µM
[15]
  TGI: 43.8 µM and 33.7 µM
[16]
  TGI: 27.4 µM and 35 µM
[17]
  TGI: 30.9 µM and 27.4 µM
[18]
  TGI: 36.8 µM and 37.5 µM
[19]
  TGI: 37.1 µM and 48.7 µM
[20]
  TGI: 30.2 µM and 27.9 µM
[21]
  TGI: 29.7 µM and 29.4 µM
[22]
  TGI: 44.3 µM and 47.3 µM
[23]
  TGI: 33.6 µM and 33.4 µM
[24]
  TGI: 42.3 µM and 40.2 µM
[25]
  TGI: 32.2 µM and 31.7 µM
[26]
  TGI: 51.9 µM and 61.3 µM
[27]
  GI50: 12.5 µM and 4.13 µM
  TGI: 31.7 µM and 23.1 µM
[28]
  TGI: 40.4 µM and 34.1 µM
[29]
  TGI: 36.3 µM and 49.5 µM
[30]
  TGI: 61.8 µM and > 100 µM
[31]
  TGI: 29.2 µM and 28.1 µM
[32]
  TGI: 35.3 µM and 28.5 µM
[33]
  TGI: 32.9 µM and 32.3 µM
[34]
  TGI: 25.9 µM and 26.5 µM
[35]
  TGI: > 100 µM
[36]
  TGI: 26.4 µM and 30.2 µM
[37]
  TGI: 30.8 µM and 37.1 µM
[38]
  TGI: 44.8 µM and 44.2 µM
[39]
  TGI: 29.5 µM and 34.2 µM
[40]
  TGI: 40.1 µM and 40.3 µM
[41]
  TGI: 31 µM and 30.5 µM
[42]
  TGI: 25.8 µM and 24.3 µM
[43]
  TGI: 29.2 µM and 27.2 µM
[44]
  TGI: 40.2 µM and 43.5 µM
[45]
  TGI: 34 µM and 34.1 µM
[46]
  TGI: 29.3 µM and 27.6 µM
[47]
  TGI: > 100 µM
[48]
  TGI: 31.9 µM and 31.7 µM
[49]
  TGI: 39.1 µM and 32.5 µM
[50]
  TGI: 30 µM and 32 µM
[51]
  TGI: 39.7 µM and 24.6 µM
[52]
  TGI: 36.2 µM and 37.7 µM
[53]
  TGI: 26.6 µM and 27.5 µM
[54]
  TGI: 30.5 µM and 30.8 µM

## N#Cc1nc(/C=C/c2nc(C#N)c(N)o2)oc1N
[1]
  TGI: > 10 µM
[2]
  TGI: > 10 µM
[3]
  TGI: > 10 µM
[4]
  TGI: > 10 µM
[5]
  TGI: > 10 µM
[6]
  TGI: > 10 µM
[7]
  TGI: > 10 µM
[8]
  TGI: > 10 µM
[55]
  TGI: > 10 µM
[9]
  TGI: > 10 µM
[10]
  TGI: > 10 µM
[11]
  TGI: > 10 µM
[12]
  TGI: > 10 µM
[13]
  TGI: > 10 µM
[14]
  TGI: > 10 µM
[15]
  TGI: > 10 µM
[16]
  TGI: > 10 µM
[17]
  TGI: > 10 µM
[18]
  TGI: > 10 µM
[19]
  TGI: > 10 µM
[20]
  TGI: > 10 µM
[21]
  TGI: > 10 µM
[22]
  TGI: > 10 µM
[23]
  TGI: > 10 µM
[24]
  TGI: > 10 µM
[25]
  TGI: > 10 µM
[26]
  TGI: > 10 µM
[56]
  TGI: > 10 µM
[28]
  TGI: > 10 µM
[29]
  TGI: > 10 µM
[57]
  TGI: > 10 µM
[30]
  TGI: > 10 µM
[32]
  TGI: > 10 µM
[58]
  TGI: > 10 µM
[34]
  TGI: > 10 µM
[35]
  TGI: > 10 µM
[36]
  TGI: > 10 µM
[37]
  TGI: > 10 µM
[38]
  TGI: > 10 µM
[39]
  TGI: > 10 µM
[41]
  TGI: > 10 µM
[42]
  TGI: > 10 µM
[43]
  TGI: > 10 µM
[44]
  TGI: > 10 µM
[45]
  TGI: > 10 µM
[46]
  TGI: > 10 µM
[47]
  TGI: > 10 µM
[48]
  TGI: > 10 µM
[49]
  TGI: > 10 µM
[50]
  TGI: > 10 µM
[52]
  TGI: > 10 µM
[53]
  TGI: > 10 µM
[54]
  TGI: > 10 µM
